Test results taken from US20230055237A1, “COMPOUNDS AND METHODS FOR THE TREATMENT OF CYSTIC FIBROSIS” (Flatley Discovery Lab, LLC, priority 2019, published 2023).

Target: T1, CFTR (Homo sapiens, UniProt P13569, DEL508-508)
T1 construct: Primary CF airway epithelial cells were obtained from the UNC Cystic Fibrosis Tissue Procurement and Cell Culture Core; host or cells: primary CF airway epithelial cells, differentiated at the air-liquid interface
Test: Equivalent current assay in primary CF airway epithelial cells (NAUC, combination with 1st site corrector FDL169 or VX-809)
Assay type: cell-based
Details: 37° C., 24 h

[1] = test compound 1 μM in combination with 1st site corrector VX-809 (3 μM)
[2] = test compound 3 μM in combination with 1st site corrector VX-809 (3 μM)
[3] = test compound 10 μM in combination with 1st site corrector VX-809 (3 μM)
[4] = test compound 1 μM in combination with 1st site corrector FDL169 (3 μM)
[5] = test compound 3 μM in combination with 1st site corrector FDL169 (3 μM)
[6] = test compound 10 μM in combination with 1st site corrector FDL169 (3 μM)

T1 sequence (P13569 with tags, fused parts or gaps DEL508-508): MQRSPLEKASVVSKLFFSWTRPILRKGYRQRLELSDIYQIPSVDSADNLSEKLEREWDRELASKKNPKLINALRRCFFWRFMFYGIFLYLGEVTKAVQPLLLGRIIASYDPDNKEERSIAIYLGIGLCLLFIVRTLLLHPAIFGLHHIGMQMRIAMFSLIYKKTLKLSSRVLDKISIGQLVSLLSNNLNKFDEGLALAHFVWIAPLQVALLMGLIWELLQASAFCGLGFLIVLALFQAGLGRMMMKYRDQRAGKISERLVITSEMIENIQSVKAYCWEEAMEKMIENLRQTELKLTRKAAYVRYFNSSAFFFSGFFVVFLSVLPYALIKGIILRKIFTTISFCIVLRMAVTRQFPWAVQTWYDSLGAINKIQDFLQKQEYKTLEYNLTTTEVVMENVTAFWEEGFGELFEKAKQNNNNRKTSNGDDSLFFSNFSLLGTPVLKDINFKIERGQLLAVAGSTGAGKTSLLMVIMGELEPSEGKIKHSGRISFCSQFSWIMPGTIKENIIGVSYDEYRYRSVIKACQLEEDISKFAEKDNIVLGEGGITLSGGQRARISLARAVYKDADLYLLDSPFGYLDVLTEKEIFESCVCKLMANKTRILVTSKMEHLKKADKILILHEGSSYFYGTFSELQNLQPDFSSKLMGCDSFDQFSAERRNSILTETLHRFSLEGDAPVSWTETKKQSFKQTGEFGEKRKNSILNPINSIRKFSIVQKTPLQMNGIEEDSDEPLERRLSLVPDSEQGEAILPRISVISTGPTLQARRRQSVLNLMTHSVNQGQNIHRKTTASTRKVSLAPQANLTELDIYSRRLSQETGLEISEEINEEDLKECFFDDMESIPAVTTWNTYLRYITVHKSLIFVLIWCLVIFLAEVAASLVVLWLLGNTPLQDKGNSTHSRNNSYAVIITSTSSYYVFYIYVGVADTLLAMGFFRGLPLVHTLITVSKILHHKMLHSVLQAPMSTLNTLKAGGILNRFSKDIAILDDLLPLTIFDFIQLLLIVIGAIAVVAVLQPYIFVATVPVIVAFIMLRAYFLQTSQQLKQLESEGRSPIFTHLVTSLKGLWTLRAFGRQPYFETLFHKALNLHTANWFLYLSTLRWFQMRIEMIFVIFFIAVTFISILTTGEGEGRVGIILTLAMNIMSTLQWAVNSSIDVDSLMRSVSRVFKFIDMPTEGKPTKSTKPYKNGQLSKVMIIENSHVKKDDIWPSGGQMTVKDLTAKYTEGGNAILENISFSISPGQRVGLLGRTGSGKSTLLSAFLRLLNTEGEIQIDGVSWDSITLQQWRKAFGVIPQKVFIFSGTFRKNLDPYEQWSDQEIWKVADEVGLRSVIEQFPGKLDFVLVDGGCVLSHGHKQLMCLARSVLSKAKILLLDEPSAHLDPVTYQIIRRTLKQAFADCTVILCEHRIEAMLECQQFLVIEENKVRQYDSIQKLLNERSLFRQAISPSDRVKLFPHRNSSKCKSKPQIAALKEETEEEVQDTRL

SMILES | Nauc @ 1 μM [1] | Nauc @ 3 μM [2] | Nauc @ 10 μM [3] | Nauc @ 1 μM [4] | Nauc @ 3 μM [5] | Nauc @ 10 μM [6]
CN(CC1(c2cccc(C(C)(C)C)c2)CC1)C(=O)[C@H]1[C@H]2CC(F)(F)CN2[C@]2(C(=O)Nc3c(Cl)cc(Cl)cc32)[C@H]1C(=O)O [Example 112] | +++ (NAUC “+++” refers to an observed NAUC>170% of positive control) | +++ (NAUC “+++” refers to an observed NAUC>170% of positive control) | +++ (NAUC “+++” refers to an observed NAUC>170% of positive control) | – | – | –
CC(C)(C)CN(C(=O)[C@H]1[C@@H](C(=O)O)[C@]2(C(=O)Nc3c(Cl)cc(Cl)cc32)N2CC3(CC3)C[C@@H]12)c1cc(Cl)cc(Cl)c1 (single isomer, unassigned) [Example 275.7b] | – | – | – | +++ (NAUC “+++” refers to an observed NAUC>170% of positive control) | +++ (NAUC “+++” refers to an observed NAUC>170% of positive control) | ++ (NAUC “++” refers to an observed NAUC 170-140% of positive control)
COCCN(C(=O)[C@H]1[C@H]2CC(F)(F)CN2[C@]2(C(=O)Nc3c(Cl)cc(Cl)cc32)[C@H]1C(=O)O)c1cc(Cl)cc(Cl)c1 [Example 132] | +++ (NAUC “+++” refers to an observed NAUC>170% of positive control) | +++ (NAUC “+++” refers to an observed NAUC>170% of positive control) | +++ (NAUC “+++” refers to an observed NAUC>170% of positive control) | – | – | –
CCC(=O)N1C(C(C)C)C(C(=O)Nc2cc(Cl)cc(Cl)c2)C(C(=O)O)C12C(=O)Nc1c(Cl)cc(Cl)cc12 (stereo not drawn) [Example 26] | – | ++ (NAUC “++” refers to an observed NAUC 170-140% of positive control) | +++ (NAUC “+++” refers to an observed NAUC>170% of positive control) | – | – | –
O=C(Nc1cc(C(F)(F)F)ccn1)C1C2CC(F)(F)CN2C2(C(=O)Nc3c(Cl)cc(Cl)cc32)C1C(=O)O (stereo not drawn) [Example 11] | – | +++ (NAUC “+++” refers to an observed NAUC>170% of positive control) | ++ (NAUC “++” refers to an observed NAUC 170-140% of positive control) | – | – | –
CC(C)(C)CN(C(=O)[C@H]1[C@H]2CC3(CC3)CN2[C@]2(C(=O)Nc3c(Cl)cc(Cl)cc32)[C@H]1C(=O)O)c1cc(Cl)cc(Cl)c1 (single isomer, unassigned) [Example 275.7a] | – | – | – | +++ (NAUC “+++” refers to an observed NAUC>170% of positive control) | +++ (NAUC “+++” refers to an observed NAUC>170% of positive control) | +++ (NAUC “+++” refers to an observed NAUC>170% of positive control)
O=C(Nc1cc(Cl)cc(Cl)c1)C1C(C(F)(F)c2ccccc2C(F)(F)F)NC2(C(=O)Nc3c(Cl)cc(Cl)cc32)C1C(=O)O (stereo not drawn) [Example 69.a] | – | – | + (NAUC “+” refers to an observed NAUC <140% of positive control) | – | – | –
COc1c(Cl)cc(N(C)C(=O)[C@H]2[C@H]3CC(F)(F)CN3[C@]3(C(=O)Nc4c(Cl)cc(Cl)cc43)[C@H]2C(=O)O)cc1Cl [Example 179] | – | – | – | ++ (NAUC “++” refers to an observed NAUC 170-140% of positive control) | ++ (NAUC “++” refers to an observed NAUC 170-140% of positive control) | +++ (NAUC “+++” refers to an observed NAUC>170% of positive control)
C[C@]1(O)CC2C(C(=O)Nc3cc(Cl)cc(Cl)c3)C(C(=O)NS(C)(=O)=O)C3(C(=O)Nc4c(Cl)cc(Cl)cc43)N2C1 (stereo partly drawn) [Example 247, (6′S)-5,7-dichloro-N1′-(3,5-dichlorophenyl)-6′-hydroxy-6′-methyl-N2′-(methylsulfonyl)-2-oxo-1′,2′,5′,6′,7′,7a′-hexahydrospiro[indoline-3,3′-pyrrolizine]-1′,2′-dicarboxamide] | + (NAUC “+” refers to an observed NAUC <140% of positive control) | ++ (NAUC “++” refers to an observed NAUC 170-140% of positive control) | +++ (NAUC “+++” refers to an observed NAUC>170% of positive control) | – | – | –
CN(C(=O)[C@H]1[C@H]2CC(F)(F)CN2[C@]2(C(=O)Nc3c(Cl)cc(Cl)cc32)[C@H]1C(=O)O)c1ccccc1-c1ccccc1 [Example 162] | – | – | – | +++ (NAUC “+++” refers to an observed NAUC>170% of positive control) | +++ (NAUC “+++” refers to an observed NAUC>170% of positive control) | +++ (NAUC “+++” refers to an observed NAUC>170% of positive control)
O=C(Nc1cc(Cl)cc(Cl)c1)C1C(C(=O)O)C(c2cc(Cl)cc(Cl)c2)N2CCCC12 (stereo not drawn) [Example 27] | – | ++ (NAUC “++” refers to an observed NAUC 170-140% of positive control) | ++ (NAUC “++” refers to an observed NAUC 170-140% of positive control) | – | – | –
Cc1ccc(C(F)(F)C2NC3(C(=O)Nc4c(Cl)cc(Cl)cc43)C(C(=O)O)C2C(=O)Nc2cc(Cl)cc(Cl)c2)cc1 (stereo not drawn) [Example 71.a] | – | – | +++ (NAUC “+++” refers to an observed NAUC>170% of positive control) | – | – | –
O=C(O)[C@H]1[C@@H](C(=O)N(CC2CCCC2)c2cc(Cl)cc(Cl)c2)[C@H]2CCCN2C12C(=O)Nc1c(Cl)cc(Cl)cc12 (single isomer, unassigned) [Example 84b] | – | – | – | +++ (NAUC “+++” refers to an observed NAUC>170% of positive control) | + (NAUC “+” refers to an observed NAUC <140% of positive control) | –
CC(C)(C)c1cccc(CCNC(=O)C2C3CC(F)(F)CN3C3(C(=O)Nc4c(Cl)cc(Cl)cc43)C2C(=O)O)c1 (racemic) [Example 44, (1′R,2′S,3R,7a′R)-1′-((3-(tert-butyl)phenethyl)carbamoyl)-5,7-dichloro-6′,6′-difluoro-2-oxo-1′,2′,5′,6′,7′,7a′-hexahydrospiro[indoline-3,3′-pyrrolizine]-2′-carboxylic acid] | – | +++ (NAUC “+++” refers to an observed NAUC>170% of positive control) | +++ (NAUC “+++” refers to an observed NAUC>170% of positive control) | – | – | –
CC(C)(C)CN(C(=O)[C@H]1[C@H]2CCCN2C2(C(=O)Nc3c(Cl)cc(Cl)cc32)[C@H]1C(=O)O)c1cc(Cl)cc(Cl)c1 (single isomer, unassigned) [Example 82.6b, (1′S,2′R,7a′S)-5,7-dichloro-1-((3,5-dichlorophenyl)(neopentyl)carbamoyl)-2-oxo-1′,2′,5′,6′,7′,7a′-hexahydrospiro[indoline-3,3′-pyrrolizine]-2′-carboxylic acid] | – | – | – | ++ (NAUC “++” refers to an observed NAUC 170-140% of positive control) | + (NAUC “+” refers to an observed NAUC <140% of positive control) | –
O=C(Nc1cc(Cl)cc(Cl)c1)C1CN(C(=O)NCc2ccccc2)C2(C(=O)Nc3c(Cl)cc(Cl)cc32)C1C(=O)O (stereo not drawn) [Example 31] | – | + (NAUC “+” refers to an observed NAUC <140% of positive control) | +++ (NAUC “+++” refers to an observed NAUC>170% of positive control) | – | – | –
Cn1cc2cc(NC(=O)[C@H]3[C@H]4CC(F)(F)CN4[C@]4(C(=O)Nc5c(Cl)cc(Cl)cc54)[C@H]3C(=O)O)ccc2n1 [Example 143] | – | – | – | + (NAUC “+” refers to an observed NAUC <140% of positive control) | + (NAUC “+” refers to an observed NAUC <140% of positive control) | –
O=C(Nc1cc2ccccc2cn1)[C@H]1[C@H]2CC(F)(F)CN2[C@]2(C(=O)Nc3c(Cl)cc(Cl)cc32)[C@H]1C(=O)O [Example 119] | + (NAUC “+” refers to an observed NAUC <140% of positive control) | + (NAUC “+” refers to an observed NAUC <140% of positive control) | + (NAUC “+” refers to an observed NAUC <140% of positive control) | – | – | –
O=C(Nc1ccc2nccnc2c1)[C@H]1[C@H]2CC(F)(F)CN2[C@]2(C(=O)Nc3c(Cl)cc(Cl)cc32)[C@H]1C(=O)O [Example 147] | – | – | – | + (NAUC “+” refers to an observed NAUC <140% of positive control) | + (NAUC “+” refers to an observed NAUC <140% of positive control) | –
O=C(Nc1nccc2ccccc12)[C@H]1[C@H]2CC(F)(F)CN2[C@]2(C(=O)Nc3c(Cl)cc(Cl)cc32)[C@H]1C(=O)O [Example 122] | + (NAUC “+” refers to an observed NAUC <140% of positive control) | + (NAUC “+” refers to an observed NAUC <140% of positive control) | – | – | – | –
CN(C(=O)C1C2N(CCC2(F)F)C2(C(=O)Nc3c(Cl)cc(Cl)cc32)C1C(=O)O)c1cc(Cl)cc(Cl)c1 (single isomer, unassigned) [Example 268b, 5,7-dichloro-1′-((3,5-dichlorophenyl)(methyl)carbamoyl)-7′,7′-difluoro-2-oxo-1′,2′,5′,6′,7′,7a′-hexahydrospiro[indoline-3,3′-pyrrolizine]-2′-carboxylic acid] | +++ (NAUC “+++” refers to an observed NAUC>170% of positive control) | +++ (NAUC “+++” refers to an observed NAUC>170% of positive control) | – | – | – | –
O=C(Nc1cc(Cl)cc(Cl)c1)C1CN(CC(F)(F)F)C2(C(=O)Nc3c(Cl)cc(Cl)cc32)C1C(=O)O (stereo not drawn) [Example 79c] | + (NAUC “+” refers to an observed NAUC <140% of positive control) | + (NAUC “+” refers to an observed NAUC <140% of positive control) | + (NAUC “+” refers to an observed NAUC <140% of positive control) | – | – | –
CN(C(=O)[C@H]1[C@H]2CC(F)(F)CN2[C@]2(C(=O)Nc3c(Cl)cc(Cl)cc32)[C@H]1C(=O)O)c1cccc(-c2ccccc2)c1 [Example 161] | – | – | – | ++ (NAUC “++” refers to an observed NAUC 170-140% of positive control) | +++ (NAUC “+++” refers to an observed NAUC>170% of positive control) | ++ (NAUC “++” refers to an observed NAUC 170-140% of positive control)
